From PMC6803667, “Binding site plasticity in viral PPxY Late domain recognition by the third WW domain of human NEDD4” (Scientific Reports, 2019)
“And” between values parts separate entries of the source, which are not always exact repeats. Equal values may be shown once. Read-outs that look alike come from different tables or passages of the source. Residues, ends and D or L forms follow the SMILES beside them. No end group written: not given here.

Assays:
hYAP-WW1 [1] = molecular target: T1, hYAP-WW1 (Homo sapiens, UniProt P46937); settings: cited from earlier work
T1 construct: comprising aminoacids 165–209 and 228–271 respectively (UniProtKB/Swiss-Prot code Q7Z574); GST-His (pETM-30, TEV site) (N, cleaved yes); made in house
T1 sequence (P46937 165-209): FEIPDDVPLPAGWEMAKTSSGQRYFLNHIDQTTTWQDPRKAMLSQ

SU(dx)-WW4 = settings: cited from earlier work
hNEDD4-WW3 [2] = molecular target: T2, hNEDD4-WW3 (Homo sapiens, UniProt P46934)
T2 construct: comprising aminoacids 834–878 (UniProtKB/Swiss-Prot code P46934); GST-His (pETM-30, TEV site) (N, cleaved yes); made in house; host or cells: E. coli BL21/DE3 is printed only for the pETM-11 NMR construct
T2 sequence (P46934 834-878): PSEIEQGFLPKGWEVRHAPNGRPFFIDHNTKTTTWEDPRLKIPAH

hYAP-WW2 [3] = molecular target: T3, hYAP-WW2 (Homo sapiens, UniProt P46937); assay type: binding; settings: pH 7
T3 construct: comprising aminoacids 165–209 and 228–271 respectively (UniProtKB/Swiss-Prot code Q7Z574); GST-His (pETM-30, TEV site) (N, cleaved yes); made in house
T3 sequence (P46937 228-271): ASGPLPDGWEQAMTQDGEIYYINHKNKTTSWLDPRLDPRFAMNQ

hNEDD4-WW3 [4] = molecular target: T2, hNEDD4-WW3; test: biochemical; assay type: binding
hYAP-WW1 [5] = molecular target: T1, hYAP-WW1; assay type: binding; settings: pH 7
hNEDD4-WW3 [6] = molecular target: T2, hNEDD4-WW3; settings: cited from earlier work
dNEDD4-WW3 = settings: cited from earlier work
hNEDD4L-WW3 = settings: cited from earlier work
rNEDD4-WW2 = settings: cited from earlier work
hITCHY-WW3 = settings: cited from earlier work
hYAP-WW1 [7] = molecular target: T1, hYAP-WW1; test: biochemical; assay type: binding
hNEDD4-WW3 [8] = molecular target: T2, hNEDD4-WW3; test: biochemical; assay type: binding; remark: listed apart in the source
SMURF2-WW3 = settings: cited from earlier work
NEDD4L-WW2 = settings: cited from earlier work
hYAP-WW2 [9] = molecular target: T3, hYAP-WW2; settings: cited from earlier work
SMURF1-WW2 = settings: cited from earlier work

GTPPPPYTVG [WBP1, WBP1 peptide of literature complex 1JMQ]
Kd (hYAP-WW1 [1]): 40 µM

NTGAKQPPSYEDCIK [Notch, Notch peptide of literature complex 2JMF]
Kd (SU(dx)-WW4): 45 µM

GPPPY ({n‑octyl}-GPPPY) [peptide of literature complex 1K9Q]
Kd (hYAP-WW1 [1]): 700 µM

CC[C@H](C)[C@H](NC(C)=O)C(=O)N[C@@H](CC(C)C)C(=O)N1CCC[C@H]1C(=O)N[C@H](C(=O)N[C@@H](C)C(=O)N1CCC[C@H]1C(=O)N1CCC[C@H]1C(=O)N[C@@H](CCC(=O)O)C(=O)N[C@@H](Cc1ccc(O)cc1)C(=O)N[C@@H](CCSC)C(=O)N[C@@H](CCC(=O)O)C(=O)N[C@@H](C)C(N)=O)[C@@H](C)O [Ebola]
amount by which theoretical enthalpy is smaller than the experimental enthalpy (hNEDD4-WW3 [2]): 7.17 kcal/mol
ΔH conf (hNEDD4-WW3 [2]): -30,01 kJ·mol -1

CC(=O)N[C@@H](CC(=O)O)C(=O)N[C@@H](CC(C)C)C(=O)N[C@@H](Cc1c[nH]c2ccccc12)C(=O)N[C@@H](CC(C)C)C(=O)N1CCC[C@H]1C(=O)N1CCC[C@H]1C(=O)N1CCC[C@H]1C(=O)N[C@@H](CCC(=O)O)C(=O)N[C@@H](Cc1ccc(O)cc1)C(=O)N[C@H](C(=O)N1CCC[C@H]1C(=O)N[C@@H](CC(C)C)C(N)=O)C(C)C [Rabies]
Kd (hYAP-WW2 [3]): n. b.
Kd (hNEDD4-WW3 [4]): 51 ± 1 µM
ΔHap (hNEDD4-WW3 [4]; pH 7): -15.7 ± 0.19 kcal/mol
ΔHap (hYAP-WW1 [5]): -15.2 ± 0.22 kcal/mol

RPE−5AP−3P−2SY0AEVVT [ARRDC3]
ΔH conf (hNEDD4-WW3 [2]): -64,67 kJ·mol -1
ΔH exp (25C) (hNEDD4-WW3 [6]): -75,4 kJ·mol -1

CSCC[C@H](NC(C)=O)C(=O)N[C@@H](CCC(N)=O)C(=O)N[C@@H](Cc1ccc(O)cc1)C(=O)N[C@@H](CC(C)C)C(=O)N[C@@H](CC(N)=O)C(=O)N1CCC[C@H]1C(=O)N1CCC[C@H]1C(=O)N1CCC[C@H]1C(=O)N[C@@H](Cc1ccc(O)cc1)C(=O)N[C@@H](C)C(=O)N[C@@H](CC(=O)O)C(=O)N[C@@H](Cc1c[nH]cn1)C(N)=O [Marburg]
Kd (hNEDD4-WW3 [4]): 51 ± 1 µM
ΔHap (hNEDD4-WW3 [4]; pH 7): -17.5 ± 0.17 kcal/mol

GSTLPIPGTPPPNYDSL [βENaC, βENaC peptide of literature complex 1I5H]
Kd (hNEDD4-WW3 [6]): 21 µM

PLPPY [peptide of literature complex 1K9R]
Kd (hYAP-WW1 [1]): 500 µM

TGLPSYDEALH [Comm, Comm PY motif peptide of literature complex 2EZ5]
Kd (dNEDD4-WW3): 3.1 µM

RLDLPPYETFEDI [HECT-Cterm, HECT C-terminal peptide of literature complex 2MPT]
Kd (hNEDD4L-WW3): 4 µM

CC(=O)N[C@@H](CCC(=O)O)C(=O)N[C@@H](Cc1ccc(O)cc1)C(=O)N1CCC[C@H]1C(=O)N1CCC[C@H]1C(=O)N[C@@H](Cc1ccc(O)cc1)C(=O)N1CCC[C@H]1C(=O)N1CCC[C@H]1C(=O)N1CCC[C@H]1C(=O)N1CCC[C@H]1C(=O)N[C@@H](Cc1ccc(O)cc1)C(=O)N1CCC[C@H]1C(=O)N[C@@H](CO)C(=O)NCC(N)=O [p53bp2] (Ac-EYPPYPPPPYPSG-NH2)
ΔHap (hYAP-WW2 [3]): -13.6 ± 0.24 kcal/mol
binding selectivity between hNEDD4-WW3, YAP-WW1 and YAP-WW2 (hNEDD4-WW3 [4]): do not distinguish between the three WW domains
Kd (hNEDD4-WW3 [4]): 4.1 µM and 5.3 µM and 9.1 µM
ΔCp (hNEDD4-WW3 [4]; pH 7): −1.59 kJ K^−1 mol^−1 and −1.59 ± 0.01 kJ K^−1 mol^−1

APLpSPMpSPPGYKLV [CX43-Cter, Cx43 carboxyl terminus peptide of literature complex 2N8T]
Kd (rNEDD4-WW2): 430 µM

CC(=O)N1CCC[C@H]1C(=O)N1CCC[C@H]1C(=O)N1CCC[C@H]1C(=O)N[C@@H](Cc1ccc(O)cc1)C(=O)N[C@H](C(=O)N[C@@H](CCC(=O)O)C(=O)N1CCC[C@H]1C(=O)N[C@H](C(=O)N[C@@H](C)C(=O)N1CCC[C@H]1C(N)=O)[C@@H](C)O)C(C)C [HTLV1 ter] (Ac-PPPYVEPTAP-NH2)
Kd (hYAP-WW2 [3]): n. b.
ΔHap (hNEDD4-WW3 [4]; pH 7): -17.7 ± 0.19 kcal/mol
Kd (hYAP-WW1 [5]): n. b.

EEPPPPYED [Epstein-Barr, Epstein-Barr peptide of literature complex 2JO9]
Kd (hITCHY-WW3): 52 µM

CC[C@H](C)[C@H](NC(=O)[C@H](CCC(N)=O)NC(=O)[C@@H]1CCCN1C(=O)[C@H](CC(=O)O)NC(=O)[C@H](CO)NC(C)=O)C(=O)N1CCC[C@H]1C(=O)N1CCC[C@H]1C(=O)N1CCC[C@H]1C(=O)N[C@@H](Cc1ccc(O)cc1)C(=O)N[C@H](C(=O)N[C@@H](CCC(=O)O)C(=O)N1CCC[C@H]1C(N)=O)C(C)C [HTLV1] (Ac-SDPQIPPPYVEP-NH2)
amount by which theoretical enthalpy is smaller than the experimental enthalpy (hNEDD4-WW3 [2]): 12 kcal/mol
ΔH conf (hNEDD4-WW3 [2]): -49,97 kJ·mol -1
ΔΔH HTLV-Ebola (hNEDD4-WW3 [4]): −20 kJ/mol^−1

CC(=O)N1CCC[C@H]1C(=O)N1CCC[C@H]1C(=O)N1CCC[C@H]1C(=O)N[C@@H](Cc1ccc(O)cc1)C(N)=O [PPPY] (Ac-PPPY-NH2)
Kd (hYAP-WW2 [3]): n. b.
Kd (hYAP-WW1 [7]): 320 ± 30 µM
ΔHap (hYAP-WW1 [7]; pH 7): ^*−39 ± 3 kJ mol^−1
Kd (hNEDD4-WW3 [8]): 201 µM
ΔHap (hNEDD4-WW3 [8]; pH 7): ^*−38 ± 1 kJ mol^−1

RPE−5AP−3P−2SY0AEVVT (RPEAPPSYAEVVT) [ARRDC3]
Kd (hNEDD4-WW3 [6]): 3.3 µM and 3 µM

TAPPPAYATLG [αENaC, αENaC PY motif peptide of literature complex 2M30]
ΔH conf (hNEDD4-WW3 [2]): -48,29 kJ·mol -1
Kd (hNEDD4-WW3 [6]): 45 µM
ΔH exp (25C) (hNEDD4-WW3 [6]): -58,2 kJ·mol -1

ELESPPPPYSRYPMD [Smad7, Smad7 peptide […] of literature complexes 2LTY, 2LTX, 2LTZ, 2LTV, 2LTW]
Kd (hYAP-WW1 [1]): 6.9 µM
Kd (SMURF2-WW3): 4.5 µM
Kd (NEDD4L-WW2): 4.2 µM
Kd (hYAP-WW2 [9]): 60 µM
Kd (SMURF1-WW2): 4.2 µM
